Test results published in patent US4788178A, “Use of gonadoliberin and gonadoliberin agonists for the treatment of climacteric complaints” (Hoechst Aktiengesellschaft, priority 1984, dated 1988).

Experiments:
parathyroid hormone [1] = assay: Action of buserelin to lower parathyroid hormone in blood serum of rats; type: in vivo, female Wistar rats
Experimental: 4 groups each containing 5 female Wistar rats were treated with placebo or three different doses (1 ng/kg, 5 ng/kg and 50 ng/kg) of buserelin. An initial blood sample was taken from all animals (initial value). Thereafter, the animals were given an injection of buserelin in physiological sodium chloride solution with the addition of 0.25% Haemaccel^R, and the placebo group was given the same amount of physiological sodium chloride solution with the addition of 0.25% Haemaccel^R. Blood samples were taken after 90 minutes and 240 minutes. The blood serum was investigated for parathyroid hormone. […] Explanation of the FIG. 1: The time course of the PTH level after i.v. administration of 1 ng/kg buserelin (curve 1), 5 ng/kg (curve 2) and 50 ng/kg (curve 3) is shown. […] All measurements are indicated with standard deviation (n=5).

parathyroid hormone [2] = settings: after infusion of calcium; similar small doses; cited from earlier work
parathyroid hormone [3] = assay: Regulating action of small doses of buserelin on parathyroid hormone in the plasma of rats; type: in vivo; settings: young female rats with a high level of parathyroid hormone
Excerpt: Increased levels of parathyroid hormone are found in bone marrow in cases of osteoporosis (Klin. Wochenschr. 62, 129-132, 1984); parathyroid hormone has an osteolytic effect. In young female rats with a high level of parathyroid hormone, small doses of the gonadoliberin agonist buserelin reduced parathyroid hormone in the plasma, although a parathyroid hormone level which has been reduced by infusion of calcium is raised by similar doses of buserelin (see German Patent Application No. P 33 32 329.1). It is possible that this regulating action of buserelin on parathyroid hormone plays a part in the treatment of ostalgia and osteoporosis.

CCNC(=O)[C@@H]1CCCN1C(=O)[C@H](CCCNC(=N)N)NC(=O)[C@H](CC(C)C)NC(=O)[C@@H](COC(C)(C)C)NC(=O)[C@H](Cc1ccc(O)cc1)NC(=O)[C@H](CO)NC(=O)[C@H](Cc1c[nH]c2ccccc12)NC(=O)[C@H](Cc1cnc[nH]1)NC(=O)[C@@H]1CCC(=O)N1 [buserelin, [D-Ser(Bu^t)^6]-gonadoliberin-(1-9)-nonapeptide ethylamide]
dose dependence of the parathyroid hormone lowering effect (parathyroid hormone [1]; 1, 5 and 50 ng/kg i.v., 90 minutes): best effect being observed at the low doses
level of parathyroid hormone in blood serum after 90 minutes (parathyroid hormone [1]; i.v. 1 ng/kg, 5 ng/kg and 50 ng/kg buserelin, female Wistar rats, 90 minutes, n=5): decreased
level of parathyroid hormone in blood serum after 240 minutes (parathyroid hormone [1]; i.v. 1, 5 and 50 ng/kg, 240 minutes): initial value had been regained
parathyroid hormone level previously reduced by infusion of calcium (parathyroid hormone [2]): raised
parathyroid hormone in the plasma (parathyroid hormone [3]): reduced
